These results are taken from paper PMC4888466 (Biochemical Journal, 2016).

Molecules are shown by their SMILES.

Experiment [1] deals with T1, RML-1 (Caenorhabditis elegans, UniProt Q9XUS4).
T1 sequence (Q9XUS4 1-511): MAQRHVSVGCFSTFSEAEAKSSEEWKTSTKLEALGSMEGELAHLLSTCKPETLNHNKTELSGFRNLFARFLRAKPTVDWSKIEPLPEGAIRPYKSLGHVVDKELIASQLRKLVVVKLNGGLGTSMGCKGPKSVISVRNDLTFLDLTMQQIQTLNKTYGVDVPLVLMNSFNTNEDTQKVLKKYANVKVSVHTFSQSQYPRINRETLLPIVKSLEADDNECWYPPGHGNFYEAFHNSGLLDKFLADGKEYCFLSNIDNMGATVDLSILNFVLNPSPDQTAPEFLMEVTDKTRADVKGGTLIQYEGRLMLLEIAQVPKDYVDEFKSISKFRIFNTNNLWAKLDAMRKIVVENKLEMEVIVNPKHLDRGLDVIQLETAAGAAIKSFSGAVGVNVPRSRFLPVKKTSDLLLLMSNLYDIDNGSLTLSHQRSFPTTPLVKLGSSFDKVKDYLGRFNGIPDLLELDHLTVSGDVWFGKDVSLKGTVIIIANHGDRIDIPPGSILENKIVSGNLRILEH
The experiment in a line: EnzChek pyrophosphate assay, […] nm. It counts as biochemical. The following applies: 1 mM Glc-1-P; 5 mM MgCl2, pH 7.5, 25°C.

Experiment [2] deals with T2, RML-4–RML-5 (Caenorhabditis elegans, UniProt Q17556).
T2 sequence (Q17556 1-631): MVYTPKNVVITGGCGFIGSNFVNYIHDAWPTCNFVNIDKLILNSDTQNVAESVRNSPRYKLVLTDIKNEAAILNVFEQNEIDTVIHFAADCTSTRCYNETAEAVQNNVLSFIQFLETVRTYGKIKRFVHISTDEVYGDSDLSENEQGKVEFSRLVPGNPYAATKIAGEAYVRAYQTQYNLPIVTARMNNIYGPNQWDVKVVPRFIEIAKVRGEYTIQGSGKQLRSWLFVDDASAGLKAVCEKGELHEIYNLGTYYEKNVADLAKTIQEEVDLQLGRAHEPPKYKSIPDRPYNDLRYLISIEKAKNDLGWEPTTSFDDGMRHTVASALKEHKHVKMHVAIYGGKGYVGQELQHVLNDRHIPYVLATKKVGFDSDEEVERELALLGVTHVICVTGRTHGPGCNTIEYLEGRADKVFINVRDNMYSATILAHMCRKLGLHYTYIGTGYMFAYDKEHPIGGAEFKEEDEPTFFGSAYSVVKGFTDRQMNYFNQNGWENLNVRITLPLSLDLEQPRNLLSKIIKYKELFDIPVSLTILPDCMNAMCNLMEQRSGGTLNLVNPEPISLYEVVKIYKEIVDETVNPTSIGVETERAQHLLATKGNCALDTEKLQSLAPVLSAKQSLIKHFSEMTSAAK
T2 sequence (Q95XM5 1-383 partner): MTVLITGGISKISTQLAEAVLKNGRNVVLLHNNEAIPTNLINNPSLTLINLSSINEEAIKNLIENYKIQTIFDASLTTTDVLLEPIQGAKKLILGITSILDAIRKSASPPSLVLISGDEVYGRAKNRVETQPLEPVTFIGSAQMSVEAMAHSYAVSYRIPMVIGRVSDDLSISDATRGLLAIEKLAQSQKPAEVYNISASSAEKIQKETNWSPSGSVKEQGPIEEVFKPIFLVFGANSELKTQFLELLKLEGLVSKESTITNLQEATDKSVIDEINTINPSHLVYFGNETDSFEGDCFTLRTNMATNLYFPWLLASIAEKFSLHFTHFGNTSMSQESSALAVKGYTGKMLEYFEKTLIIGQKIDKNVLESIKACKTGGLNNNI
Put plainly: LC–MS. It counts as biochemical. The settings on record: formed from dTDP-4-keto-6-deoxyglucose with RML-3 and NAD(P)H, 25°C.

For the molecule `O=c1ccn([C@@H]2O[C@H](COP(=O)(O)OP(=O)(O)OP(=O)(O)O)[C@@H](O)[C@H]2O)c(=O)[nH]1` [UTP], the Km in experiment [1] came to 9.47 ± 1.7 µM.

`Cc1cn([C@H]2C[C@H](O)[C@@H](COP(=O)(O)OP(=O)(O)O[C@H]3O[C@@H](C)[C@H](O)[C@@H](O)[C@H]3O)O2)c(=O)[nH]c1=O` [dTDP-rhamnose]: the “LC-MS; 1H NMR and COSY of HPLC-purified product” value in experiment [2] was “the final product is dTDP-rhamnose when dTDP-4-keto-6-deoxyglucose is incubated with RML-3 and RML-4–RML-5”.

For the molecule `Cc1cn([C@H]2C[C@H](O)[C@@H](COP(=O)(O)OP(=O)(O)OP(=O)(O)O)O2)c(=O)[nH]c1=O` [dTTP], the Km in experiment [1] was 24.2 ± 2.86 µM.

The Km is the substrate concentration at which the rate is half of its maximum.
